This passage reports EC50, IC50 and AC50 results from ChEMBL document CHEMBL1201862, “PubChem BioAssay data set” (2004).

For test [1], the target named is T1, Heat shock factor protein 1 (Mus musculus, UniProt P38532).
T1 sequence (P38532 whole entry): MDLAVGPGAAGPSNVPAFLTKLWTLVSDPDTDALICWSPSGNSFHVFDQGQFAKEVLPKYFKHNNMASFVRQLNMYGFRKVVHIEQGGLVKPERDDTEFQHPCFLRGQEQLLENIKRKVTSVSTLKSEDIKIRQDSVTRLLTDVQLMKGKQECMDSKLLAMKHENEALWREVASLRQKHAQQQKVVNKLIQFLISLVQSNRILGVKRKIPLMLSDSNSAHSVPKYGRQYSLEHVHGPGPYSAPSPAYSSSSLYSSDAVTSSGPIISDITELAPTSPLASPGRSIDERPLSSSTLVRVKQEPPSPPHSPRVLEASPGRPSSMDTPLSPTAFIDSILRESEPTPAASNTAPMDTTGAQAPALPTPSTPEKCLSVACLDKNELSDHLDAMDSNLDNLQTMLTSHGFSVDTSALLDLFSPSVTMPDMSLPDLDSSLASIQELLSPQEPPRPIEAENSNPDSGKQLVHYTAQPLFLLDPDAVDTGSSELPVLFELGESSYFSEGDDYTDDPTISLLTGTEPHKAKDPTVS
The test can be described thus: HSF1 potentiators in luciferase reporter cells, confirmation, cell-based, NIH3T3, luminescence, dose retest (AID 435004).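 Also: stress induced by proteasome inhibitor MG132 added 30 min after compound; luciferase reporter driven by HSF1 response element in NIH3T3 cells; actives raise luminescence as potentiators of the MG132 stress response.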 In kind it is functional.

Test [2] has as its target T2, Apoptotic protease-activating factor 1 (Homo sapiens, UniProt O14727).
T2 sequence (O14727 whole entry): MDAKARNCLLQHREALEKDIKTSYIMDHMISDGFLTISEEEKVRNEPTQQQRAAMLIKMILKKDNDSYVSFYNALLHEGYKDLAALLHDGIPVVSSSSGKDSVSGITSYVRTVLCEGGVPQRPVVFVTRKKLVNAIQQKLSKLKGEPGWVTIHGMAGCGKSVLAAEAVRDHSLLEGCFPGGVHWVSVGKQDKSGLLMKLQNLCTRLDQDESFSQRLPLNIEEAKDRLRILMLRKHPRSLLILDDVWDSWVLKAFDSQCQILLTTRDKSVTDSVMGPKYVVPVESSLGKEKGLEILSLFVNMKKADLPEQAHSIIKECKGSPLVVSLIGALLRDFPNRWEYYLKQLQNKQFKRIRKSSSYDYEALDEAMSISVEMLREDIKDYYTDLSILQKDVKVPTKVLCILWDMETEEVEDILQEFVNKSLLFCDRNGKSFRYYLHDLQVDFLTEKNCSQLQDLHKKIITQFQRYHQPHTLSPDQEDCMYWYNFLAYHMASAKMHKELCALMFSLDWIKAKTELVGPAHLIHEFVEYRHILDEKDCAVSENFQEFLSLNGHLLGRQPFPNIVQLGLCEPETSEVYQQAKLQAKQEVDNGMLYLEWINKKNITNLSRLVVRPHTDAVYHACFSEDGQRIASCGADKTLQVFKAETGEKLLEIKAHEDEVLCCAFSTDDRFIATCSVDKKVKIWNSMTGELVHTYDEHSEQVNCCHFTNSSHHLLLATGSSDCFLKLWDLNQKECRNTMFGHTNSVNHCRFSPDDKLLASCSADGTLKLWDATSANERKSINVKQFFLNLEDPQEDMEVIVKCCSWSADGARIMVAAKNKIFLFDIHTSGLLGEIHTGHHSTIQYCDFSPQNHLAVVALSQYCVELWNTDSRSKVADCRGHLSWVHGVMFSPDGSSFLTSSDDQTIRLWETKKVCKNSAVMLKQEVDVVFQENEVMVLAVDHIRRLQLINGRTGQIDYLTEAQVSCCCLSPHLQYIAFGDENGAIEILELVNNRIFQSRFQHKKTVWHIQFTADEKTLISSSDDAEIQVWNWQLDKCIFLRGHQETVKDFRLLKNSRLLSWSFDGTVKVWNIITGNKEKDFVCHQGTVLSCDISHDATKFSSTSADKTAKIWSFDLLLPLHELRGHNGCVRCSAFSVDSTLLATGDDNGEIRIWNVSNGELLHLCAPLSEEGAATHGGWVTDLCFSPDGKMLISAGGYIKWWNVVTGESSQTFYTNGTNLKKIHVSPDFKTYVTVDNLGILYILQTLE
Format: functional.

Test [3] addresses T3, Histone-lysine N-methyltransferase NSD2 (Homo sapiens, UniProt O96028).
T3 sequence (O96028 whole entry): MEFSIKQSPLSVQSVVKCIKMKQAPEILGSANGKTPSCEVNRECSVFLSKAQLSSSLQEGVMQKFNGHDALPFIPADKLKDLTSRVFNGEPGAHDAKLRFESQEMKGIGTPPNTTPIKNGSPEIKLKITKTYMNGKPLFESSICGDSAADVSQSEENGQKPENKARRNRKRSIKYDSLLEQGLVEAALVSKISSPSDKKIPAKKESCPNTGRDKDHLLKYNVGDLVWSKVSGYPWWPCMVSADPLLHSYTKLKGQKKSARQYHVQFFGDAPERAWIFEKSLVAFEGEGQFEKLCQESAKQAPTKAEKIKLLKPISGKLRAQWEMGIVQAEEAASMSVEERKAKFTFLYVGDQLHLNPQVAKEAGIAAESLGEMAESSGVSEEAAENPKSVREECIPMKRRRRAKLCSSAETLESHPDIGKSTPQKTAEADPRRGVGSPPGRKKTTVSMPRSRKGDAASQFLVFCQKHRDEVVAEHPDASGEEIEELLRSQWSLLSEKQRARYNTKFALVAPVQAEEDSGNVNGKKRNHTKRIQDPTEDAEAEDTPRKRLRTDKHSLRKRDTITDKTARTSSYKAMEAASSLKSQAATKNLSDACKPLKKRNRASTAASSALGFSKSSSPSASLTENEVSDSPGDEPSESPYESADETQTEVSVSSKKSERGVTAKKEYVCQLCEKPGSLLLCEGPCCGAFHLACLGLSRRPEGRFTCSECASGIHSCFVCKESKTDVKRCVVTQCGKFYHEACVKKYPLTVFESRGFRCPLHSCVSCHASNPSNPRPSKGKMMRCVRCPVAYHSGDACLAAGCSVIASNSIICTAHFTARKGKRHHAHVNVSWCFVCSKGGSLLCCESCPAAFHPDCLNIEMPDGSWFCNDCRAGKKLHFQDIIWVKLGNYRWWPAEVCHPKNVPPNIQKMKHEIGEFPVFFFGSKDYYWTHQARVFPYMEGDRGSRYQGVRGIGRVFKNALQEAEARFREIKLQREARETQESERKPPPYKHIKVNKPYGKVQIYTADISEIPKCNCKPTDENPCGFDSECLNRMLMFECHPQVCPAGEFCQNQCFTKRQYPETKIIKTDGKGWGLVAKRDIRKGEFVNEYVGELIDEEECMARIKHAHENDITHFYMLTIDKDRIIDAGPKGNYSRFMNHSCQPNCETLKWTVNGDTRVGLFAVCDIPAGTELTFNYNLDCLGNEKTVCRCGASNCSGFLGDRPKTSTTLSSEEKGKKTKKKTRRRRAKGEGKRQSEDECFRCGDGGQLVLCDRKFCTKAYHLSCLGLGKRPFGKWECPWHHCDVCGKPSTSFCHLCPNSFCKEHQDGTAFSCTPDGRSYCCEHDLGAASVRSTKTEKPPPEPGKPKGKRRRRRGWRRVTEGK
Format: biochemical.

Each structure is given as a SMILES string. Activity calls are given as the source filed them. A value given as a limit tells only on which side of the number the result lay.

Usually EC50 stands for the concentration needed to bring the measured effect to its halfway point. As a reminder, the IC50 is the concentration at which inhibition is half-maximal. A word on the AC50: it is the concentration at which the activity in the assay is half-maximal.

As for `CCC(=O)OCCNc1cc(Sc2nccn2C)c2nonc2c1[N+](=O)[O-]`, in test [1], the EC50 is 4.5 µM (active). As for `O=C1C(=O)c2ccccc2-c2ccccc21` [9,10-PHENANTHRENEQUINONE], the IC50 in test [2] was 0.549 µM (active).

Take `CCOC(=O)C1=C(c2ccc(OC)cc2)C(=O)c2ccccc2C1=O`: the EC50 in test [1] was 52.2 µM (active).

Regarding `CCc1ccc(OCC(=O)N/N=C2\CC(=O)c3ccccc32)cc1`, the IC50 in test [2] is 18.5 µM (active).

Regarding `CCCCn1c(NC(=O)c2ccccc2Cl)c(C#N)c2nc3ccccc3nc21`, the AC50 in test [3] is 2.68 µM (active). Also, in test [2], the 50% inhibitory concentration (IC50) is 13.7 µM (active). Regarding `O=C1c2cc(F)ccc2-n2c1nc1ccccc1c2=O`, the IC50 in test [2] was 3.8 µM (active). On to `O=C1C=C(N(CCO)Cc2ccccc2)c2ccccc2C1=O`, for which, in test [3], the AC50 is 1.2 µM (active). Take `COCCCNC(=O)c1ccc2c3c(onc13)-c1ccccc1C2=O`: the AC50 in test [3] is > 20 µM (inactive). Further, in test [2], the IC50 is 15.7 µM (active). Moreover, the EC50 in test [1] was 3.48 µM (active).
